Test results: patent publication US10875874B2, “Ginkgolide B derivative and preparation method and use thereof” (Chengdu Baiyu Ginkgolide Pharmaceuticals Co., Ltd., priority 2015, dated 2020)
In brackets after ≈: the same amount, converted by molar mass. Marks after values point to notes of the source that are not given here.

What was measured:
[1] = Weekly food intake of SHR rats; format: in vivo, rat
Method in brief: (§1)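 Male and female SHR rats (200-250 g, 8/group) dosed intragastrically once daily for 8 weeks with test compounds at 60 or 120 mg/kg/d or captopril 27 mg/kg; Wistar and SHR controls received distilled water. Body weight and food intake observed during treatment.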

[2] = Weekly body weight of SHR rats; format: in vivo, rat
Method in brief: as §1

[3] = test system: spontaneously hypertensive rats (SHR); assay: Caudal artery systolic pressure of spontaneously hypertensive rats, single administration; format: in vivo, rat; settings: x ± s, n = 8
Method in brief: (§2)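 SHR rats of both sexes (200–250 g, 8/group) dosed intragastrically with 60 or 120 mg/kg/d, or captopril 27 mg/kg, once daily for 8 weeks; Wistar rats and vehicle SHR served as controls. Tail-cuff systolic pressure taken as the mean of 3 readings, measured before dosing and 30–120 min after the first dose, or 30 min post-dose on days 1–56 for chronic treatment.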

[4] = test system: spontaneously hypertensive rats (SHR); assay: Caudal artery systolic pressure of spontaneously hypertensive rats, 8 weeks of continuous medication; format: in vivo, rat; settings: x ± s, n = 8
Method in brief: as §2

Water solubility test = settings: purified water, thermodynamic from solid
Experimental: Measuring method: samples are ground to obtain fine powder, target compounds are quantitatively weighed, the weighed compounds are added into purified water, and the solubility of the compounds is investigated by ultrasonics.

[5] = 60 mg/kg/d intragastric, week 0
[6] = 60 mg/kg/d intragastric, week 1
[7] = 60 mg/kg/d intragastric, week 2
[8] = 60 mg/kg/d intragastric, week 3
[9] = 60 mg/kg/d intragastric, week 4
[10] = 60 mg/kg/d intragastric, week 5
[11] = 60 mg/kg/d intragastric, week 6
[12] = 60 mg/kg/d intragastric, week 7
[13] = 60 mg/kg/d intragastric, week 8
[14] = 120 mg/kg/d intragastric, week 0
[15] = 120 mg/kg/d intragastric, week 1
[16] = 120 mg/kg/d intragastric, week 2
[17] = 120 mg/kg/d intragastric, week 3
[18] = 120 mg/kg/d intragastric, week 4
[19] = 120 mg/kg/d intragastric, week 5
[20] = 120 mg/kg/d intragastric, week 6
[21] = 120 mg/kg/d intragastric, week 7
[22] = 120 mg/kg/d intragastric, week 8

With `Cc1nc(C)c(C(=O)O[C@H]2C(=O)O[C@H]3O[C@]45C(=O)OC6C[C@@H](C(C)(C)C)C32[C@@]64[C@@H](O)[C@@H]2OC(=O)[C@@H](C)[C@@]25O)nc1C` (some centres unmarked) [BZ] the “Average dairy food intake” value [1, 5] was 18.1 g/day, the “Average dairy food intake” value [1, 6] was 19.5^▴ g/d and the “Average dairy food intake” value [1, 7] was 19.7^▴ g/d. The “Average dairy food intake” value [1, 8] was 20.4^▴▴ g/d, the “Average dairy food intake” value [1, 9] was 20.9^▴▴ g/d and the “Average dairy food intake” value [1, 10] was 21.7^▴▴ g/d. The “Average dairy food intake” value [1, 11] was 22.9^▴▴ g/d, the “Average dairy food intake” value [1, 12] was 24.0^▴▴ g/d and the “Average dairy food intake” value [1, 13] was 24.9^▴▴ g/d. The “Average dairy food intake” value [1, 14] was 18.0 g/day, the “Average dairy food intake” value [1, 15] was 19.3^▴ g/d and the “Average dairy food intake” value [1, 16] was 20.5^▴▴ g/d. The “Average dairy food intake” value [1, 17] was 22.0^▴▴ g/d, the “Average dairy food intake” value [1, 18] was 22.6^▴▴ g/d and the “Average dairy food intake” value [1, 19] was 23.6^▴▴ g/d. The “Average dairy food intake” value [1, 20] was 24.1^▴▴ g/d, the “Average dairy food intake” value [1, 21] was 24.9^▴▴ g/d and the “Average dairy food intake” value [1, 22] was 27.0^▴▴ g/d. It also gave a Body weight [2, 5] of 231.0 g, a Body weight [2, 6] of 235.7 g and a Body weight [2, 7] of 242.5 g. For the same compound, the Body weight [2, 8] was 251.6 g, the Body weight [2, 9] was 259.4^▴ g and the Body weight [2, 10] was 263.6^▴ g. The Body weight [2, 11] was 269.1^▴▴ g, the Body weight [2, 12] was 276.8^▴▴ g and the Body weight [2, 13] was 288.0^▴▴ g. The Body weight [2, 14] was 268.9 g, the Body weight [2, 15] was 249.4^▴▴ g and the Body weight [2, 16] was 256.7^▴▴ g. For the same compound, the Body weight [2, 17] was 262.4^▴▴ g, the Body weight [2, 18] was 268.9^▴▴ g and the Body weight [2, 19] was 280.7^▴▴ g. For the same compound, the Body weight [2, 20] was 291.3^▴▴ g, the Body weight [2, 21] was 305.4^▴▴ g and the Body weight [2, 22] was 320.9^▴▴ g. It also gave a Systolic pressure ([3]; 60 mg/kg intragastric single administration, 30 min) of 152.65 ± 10.48 mmHg, a Systolic pressure ([3]; 60 mg/kg intragastric single administration, 60 min) of 153.05 ± 16.39 mmHg and a Systolic pressure ([3]; 60 mg/kg intragastric single administration, 90 min) of 151.14 ± 10.87 mmHg. It also gave a Systolic pressure ([3]; 60 mg/kg intragastric single administration, 120 min) of 156.47 ± 12.47 mmHg, a Systolic pressure ([3]; 60 mg/kg intragastric single administration, before administration) of 163.58 ± 10.36 mmHg and a Systolic pressure ([3]; 120 mg/kg intragastric single administration, 30 min) of 150.00 ± 9.15 mmHg. For the same compound, the Systolic pressure ([3]; 120 mg/kg intragastric single administration, 60 min) was 152.95 ± 9.26 mmHg, the Systolic pressure ([3]; 120 mg/kg intragastric single administration, 90 min) was 156.28 ± 13.95 mmHg and the Systolic pressure ([3]; 120 mg/kg intragastric single administration, 120 min) was 169.36 ± 10.63 mmHg. The Systolic pressure ([3]; 120 mg/kg intragastric single administration, before administration) was 166.24 ± 12.14 mmHg, the Systolic pressure ([4]; 60 mg/kg/d intragastric continuous, 1 d, 30 min after administration) was 158.77 ± 11.06 mmHg and the Systolic pressure ([4]; 60 mg/kg/d intragastric continuous, 7 d, 30 min after administration) was 153.41 ± 14.08 mmHg. It also gave a Systolic pressure ([4]; 60 mg/kg/d intragastric continuous, 13 d, 30 min after administration) of 151.38 ± 9.47 mmHg, a Systolic pressure ([4]; 60 mg/kg/d intragastric continuous, 19 d, 30 min after administration) of 155.74 ± 10.62 mmHg and a Systolic pressure ([4]; 60 mg/kg/d intragastric continuous, 25 d, 30 min after administration) of 154.94 ± 9.64 mmHg. It also gave a Systolic pressure ([4]; 60 mg/kg/d intragastric continuous, 35 d, 30 min after administration) of 150.95 ± 5.04 mmHg, a Systolic pressure ([4]; 60 mg/kg/d intragastric continuous, 49 d, 30 min after administration) of 155.06 ± 6.37 mmHg and a Systolic pressure ([4]; 60 mg/kg/d intragastric continuous, 56 d, 30 min after administration) of 153.95 ± 14.01 mmHg. For the same compound, the Systolic pressure ([4]; 60 mg/kg/d intragastric continuous, before administration) was 163.58 ± 10.36 mmHg, the Systolic pressure ([4]; 120 mg/kg/d intragastric continuous, 1 d, 30 min after administration) was 154.69 ± 9.85 mmHg and the Systolic pressure ([4]; 120 mg/kg/d intragastric continuous, 7 d, 30 min after administration) was 153.74 ± 10.24 mmHg. It also gave a Systolic pressure ([4]; 120 mg/kg/d intragastric continuous, 13 d, 30 min after administration) of 150.39 ± 10.39 mmHg, a Systolic pressure ([4]; 120 mg/kg/d intragastric continuous, 19 d, 30 min after administration) of 149.72 ± 9.83 mmHg and a Systolic pressure ([4]; 120 mg/kg/d intragastric continuous, 25 d, 30 min after administration) of 149.02 ± 8.26 mmHg. For the same compound, the Systolic pressure ([4]; 120 mg/kg/d intragastric continuous, 35 d, 30 min after administration) was 151.72 ± 10.47 mmHg, the Systolic pressure ([4]; 120 mg/kg/d intragastric continuous, 49 d, 30 min after administration) was 153.42 ± 12.04 mmHg and the Systolic pressure ([4]; 120 mg/kg/d intragastric continuous, 56 d, 30 min after administration) was 148.62 ± 9.73 mmHg. The Systolic pressure ([4]; 120 mg/kg/d intragastric continuous, before administration) was 166.24 ± 12.14 mmHg and the solubility (Water solubility test) was 300 µg/mL (≈ 524 µM).
